Test results published in patent publication US20080146555A1, “Uses of Kinase Inhibitors and Compositions Thereof” (GPC Biotech, Inc, priority 2004, published 2008).
Where a name gives a salt, the structure may show the parent alone. Read-outs that look alike come from different tables or passages of the source.

How the values were obtained:
c-Kit = target: T1, c-Kit (Homo sapiens, UniProt P10721); test: c-Kit kinase assay (ProQinase); type: biochemical; settings: read-out: KIT Inhibition (IC50)
T1 construct: purchased ProQinase (printed 'ProQuinase', Freiburg, Germany)
Method: • c-kit can be assayed, for example, using the PanQinase Activity Assay or ProQuinase (Freiburg, Germany). Briefly:
Assay buffer-60 mM HEPES-NaOH, pH 7.5, 3 mM MgCl2, 3 mM MnCl2, 3 uM Na-orthovanadate, 1.2 mM DTT, 50 ug/ml PEG 20000, 1 uM [γ-^33P] ATP (approx. 5×10^5 cpm per well) • Reaction cocktail-20 ul assay buffer, 5 ul ATP, 5 ul test compound (in 10% DMSO), 10 ul substrate/10 ul enzyme=100 ng (pre-mixed). • The reaction cocktails are incubated at 30° C. for 80 minutes and terminated with addition of 50 ul 2% H3PO4. The plates are aspirated and washed two times with 200 ul H2O or 200 ul NaCl. Incorporation of radiolabelled substrate is determined with a microplate scintillation counter such as described in the Technical Note above.

MEK1 = target: T2, MEK1 (Homo sapiens, UniProt Q02750); test: MEK1 kinase assay; type: biochemical
T2 construct: purchased Upstate 14-429
Method: 1. Assay Dilution Buffer I (ADBI, Catalog #20-108): 20 mM MOPS, pH 7.2, 25 mM β-glycerol phosphate, 5 mM EGTA, 1 mM sodium orthovanadate, 1 mM dithiothreitol. • 2. Magnesium/ATP Cocktail (Catalog #20-113): 500 μM cold ATP and 75 mM magnesium chloride in ADBI. • 3. MEK1, active: Dilute to 0.5-5 ng/μl with ADBI containing 0.03% Brij-35 and 1 mg/ml BSA. Use 5 μl per assay point. • 4. MAP Kinase 2/Erk2, unactive (Catalog #14-198): Use 1 μg per assay point. • 5. MBP Substrate (Catalog #13-104): Prepare a 3.33 mg/ml stock solution with ADBI. Use 2.5 μl per assay for a final concentration of 0.33 mg/ml per assay point. • 6. Magnesium/ATP Cocktail (Catalog #20-113): 75 mM MgCl2 and 500 μM ATP in 20 mM MOPS, pH 7.2, 25 mM β-glycerol phosphate, 5 mM EGTA, 1 mM sodium orthovanadate, 1 mM dithiothreitol.
7. [γ-^32P]ATP: Stock 1 mCi/100 μl (3000 Ci/mmol, obtained from Perkin Elmer, Catalog #BLU002A). Make 10 μl aliquots (100 μCi/vial). Before starting the assay, dilute the Magnesium/ATP Cocktail 1:1 with sterile, distilled water. Then dilute an aliquot of [γ-^32P]ATP to 1 μCi/μl with 90 μl of the diluted Magnesium/ATP Cocktail. […]
• 1. Add 1 μl of ADBI to a microcentrifuge tube. • 2. Add 5 μl of Magnesium/ATP cocktail. • 3. Add 5 μl of MEK1, active (2.5-25 ng) • 4. Add 4 μl (1 μg) of unactive MAP Kinase 2/Erk 2. • 5. Incubate at 30° C. for 30 minutes. • 6. Remove 1 μl of this mixture and add to Stage Two component mixture.
• 1. Add 12.5 μl of ADBI. • 2. Add 2.5 μl of MBP stock solution. • 3. Add 10 μl of diluted [γ-^32P] ATP. • 4. Incubate for at 30° C. 10 minutes. • 5. Transfer a 20 μl aliquot onto the center of a 2 cm×2 cm P81 paper square. • 6. Wash the paper squares three times with 0.75% phosphoric acid for 5 minutes per wash. • 7. Wash the paper squares once with acetone for five minutes. • 8. Transfer the paper squares to a scintillation vial and add 5 ml scintillation cocktail. • 9. Read in scintillation counter. Compare cpm of enzyme samples to cpm of control samples that contain no enzyme (background control).

NCI-Adr resistant = test: SRB cytotoxicity, P-glycoprotein expressing cells with and without verapamil; type: cell-based; settings: for IC50: Homo sapiens, NCI/ADR-RES, 72 h, SRB; for relative resistance, NCI-Adr resistant −/+ verapamil: individual experiments; for RR (relative resistance) NCI-Adr resistant −/+ verapamil: ratio of mean IC50
Method: In these experiments, the P-glycoprotein expressing NCI-Adr resistant subline (Vickers et al., 1989. Mol Endocrinology 3 (1):157-164) was used. […] Briefly, cells were plated in 96 well dishes 24 hours prior to compound addition. Where noted, they were exposed to verapamil for 4 hours prior to compound addition and then throughout the treatment period (72 hours). The assay was terminated with the addition of cold TCA to a final concentration of 10% and the plates were incubated for one hour at 4° C. The plates were then washed 5 times with water and 100 μl of a Sulforhodamine B solution (4%) was added to each well. The plate was then incubated for 10 minutes at room temperature before removal of unbound dye by washing with 1% acetic acid.

cell cycle = test: Cell cycle arrest; type: cell-based
[1] = kinase panel, 10 μM ATP, read-out: MAPK 1 / MEK1 IC50
[2] = read-out: MAP2K1 Inhibition (IC50)

T2 sequence (Q02750 whole entry, species assumed): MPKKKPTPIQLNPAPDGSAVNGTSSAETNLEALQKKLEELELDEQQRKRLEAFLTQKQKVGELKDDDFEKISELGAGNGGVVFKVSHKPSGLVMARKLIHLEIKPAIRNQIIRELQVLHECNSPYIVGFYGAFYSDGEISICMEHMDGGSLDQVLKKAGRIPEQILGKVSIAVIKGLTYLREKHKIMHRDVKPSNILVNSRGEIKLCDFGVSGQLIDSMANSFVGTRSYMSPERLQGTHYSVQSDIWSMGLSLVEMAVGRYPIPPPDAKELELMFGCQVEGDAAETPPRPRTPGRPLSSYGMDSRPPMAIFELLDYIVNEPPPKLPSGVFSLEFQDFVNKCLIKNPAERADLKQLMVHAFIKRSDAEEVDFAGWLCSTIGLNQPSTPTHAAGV
T1 sequence (P10721 26-976): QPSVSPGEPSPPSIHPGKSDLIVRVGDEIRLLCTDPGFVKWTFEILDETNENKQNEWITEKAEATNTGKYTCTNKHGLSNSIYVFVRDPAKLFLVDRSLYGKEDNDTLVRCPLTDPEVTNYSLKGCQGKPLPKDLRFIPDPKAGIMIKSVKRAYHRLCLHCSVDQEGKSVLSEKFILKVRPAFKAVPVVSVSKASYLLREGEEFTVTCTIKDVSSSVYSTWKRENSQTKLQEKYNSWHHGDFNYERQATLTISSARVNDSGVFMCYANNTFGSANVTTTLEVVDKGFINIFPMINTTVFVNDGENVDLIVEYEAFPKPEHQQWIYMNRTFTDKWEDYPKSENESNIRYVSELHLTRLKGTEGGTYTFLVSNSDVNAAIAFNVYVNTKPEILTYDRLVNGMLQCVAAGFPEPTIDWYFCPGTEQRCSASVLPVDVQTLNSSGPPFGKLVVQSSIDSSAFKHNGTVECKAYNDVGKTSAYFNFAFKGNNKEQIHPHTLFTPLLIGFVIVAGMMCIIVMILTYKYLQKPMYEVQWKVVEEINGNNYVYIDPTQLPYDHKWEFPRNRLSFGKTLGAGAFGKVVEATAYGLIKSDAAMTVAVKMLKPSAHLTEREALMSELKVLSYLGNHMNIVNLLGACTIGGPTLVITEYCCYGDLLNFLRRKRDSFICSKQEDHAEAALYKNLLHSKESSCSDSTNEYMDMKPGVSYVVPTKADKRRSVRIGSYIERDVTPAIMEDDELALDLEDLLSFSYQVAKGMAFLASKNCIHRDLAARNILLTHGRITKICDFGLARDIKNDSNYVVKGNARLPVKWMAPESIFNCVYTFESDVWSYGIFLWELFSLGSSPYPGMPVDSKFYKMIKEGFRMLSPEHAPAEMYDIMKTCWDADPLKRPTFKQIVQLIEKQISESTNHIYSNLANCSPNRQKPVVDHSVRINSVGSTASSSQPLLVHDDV

| SMILES | IC50 (c-Kit) | IC50 (MEK1; [1]) | IC50 (MEK1; [2]) | IC50 (NCI-Adr resistant; verapamil 12.5 μg/ml) | IC50 (NCI-Adr resistant; without verapamil) | relative resistance, NCI-Adr resistant −/+ verapamil (NCI-Adr resistant) | RR (relative resistance) NCI-Adr resistant −/+ verapamil (NCI-Adr resistant) | cell cycle arrest (cell cycle) |
| --- | --- | --- | --- | --- | --- | --- | --- | --- |
| CC(C)N1CCN(C(=O)COc2ccc(-c3n[nH]c4c3C(=O)c3c(NC(=O)NN5CCOCC5)cccc3-4)cc2)CC1 [Compound A37] | < 500 nM | 10 to 100 nM | < 50 nM | 135 nM | 3430 nM | about 25 fold | 25.4 | predominantly G1 arrest |
| COCCN1CCN(Cc2ccc(-c3n[nH]c4c3C(=O)c3c(NC(=O)NN5CCOCC5)cccc3-4)cc2)CC1 [Compound B16, N-[3-(4-{[4-(2-methoxyethyl)piperazinyl]methyl}phenyl)-4-oxoindeno[2,3-d]pyrazol-5-yl](morpholin-4-ylamino)carboxamide dihydrochloride] | < 500 nM | < 100 nM | < 100 nM | 80 nM | 1870 nM | about 25 fold | 23.4 | predominantly G1 arrest |
